Values of other authors as cited in patent US20240173376A1, “TREM-1 INHIBITORS FOR THE TREATMENT OF MARFAN SYNDROME” (INSERM (INSTITUT NATIONAL DE LA SANTÉ ET DE LA RECHERCHE …, priority 2021, published 2024).

Experiments:
AT1R [1] = conditions: animal model of Marfan's disease (Hibashi et al, Science, 2006)
AT1R [2] = molecular target: T1, AT1R (Homo sapiens, UniProt P30556)
T1 construct: host or cells: patients in randomized clinical studies
T1 sequence (P30556 1-359): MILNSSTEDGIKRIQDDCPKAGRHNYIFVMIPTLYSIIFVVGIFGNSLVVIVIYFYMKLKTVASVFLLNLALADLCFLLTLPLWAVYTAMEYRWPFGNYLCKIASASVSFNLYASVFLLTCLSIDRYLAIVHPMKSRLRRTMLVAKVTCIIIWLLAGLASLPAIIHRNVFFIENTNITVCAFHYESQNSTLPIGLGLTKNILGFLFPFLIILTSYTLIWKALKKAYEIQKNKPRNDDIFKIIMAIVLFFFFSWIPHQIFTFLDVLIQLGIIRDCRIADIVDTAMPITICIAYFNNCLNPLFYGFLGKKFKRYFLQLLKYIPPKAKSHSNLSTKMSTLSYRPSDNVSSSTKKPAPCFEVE

[3] = Marfan patients (Shores et al 1994; Ladouceur et al 2007)

Row | SMILES | arterial wall architecture and aortic dilatation (AT1R [1]) | benefit in humans (AT1R [2]; randomized, double-blind, multicenter study (Milleron et al, Eur Heart J)) | progression of aortic dilatation in humans (AT1R [2]; study with comparable methodology, N=192 (Mullen et al. Lancet 2019)) | aortic dilatation and risk of dissection [3]
1 | CCCCc1nc(Cl)c(CO)n1Cc1ccc(-c2ccccc2-c2nn[nH]n2)cc1 [Losartan] | improves arterial wall architecture and reduces aortic dilatation | no benefit | a benefit | –
2 | CC(C)NCC(O)COc1cccc2ccccc12 (stereo not shown) [propranolol] | – | – | – | limits aortic dilatation and the risk of dissection
